The conditions of series [1]: 298.15 K, 101.33 kPa, Liquid.
A short description of series [2]: refractive index (Na D-line) (dimensionless). As to conditions: 298.15 K; 101.33 kPa; Liquid; Standard Abbe refractometry.

± gives the expanded uncertainty stated by the source.

What is called mass density is mass per unit of volume. In general, refractive index refers to the speed of light in vacuum divided by its phase velocity in the sample.

As to `O` [water], in series [1], the electrical conductivity was 1.3e-05 ± 1e-06 S/m. Turning to `CN1CCN(C)C1=O` [1,3-dimethyl-2-imidazolidinone], the mass density in series [1] (Vibrating tube method) was 1052.23 ± 1.2 kg/m3. The refractive index in series [2] came to 1.4713 ± 0.0008.
